Experimental data published in ChEMBL document CHEMBL5338801, “Carbohydrate Strengthens the Immunotherapeutic Effect of Small-Molecule PD-L1 Inhibitors” (J Med Chem, 2023).
Activity calls are given as the source filed them. No cut-off for these calls is given here.

Experiments:
[1] = test system: Jurkat; assay: Cytotoxicity against human Jurkat cells assessed as cell growth inhibition incubated for 48 hrs by MTT assay; type: functional, cell-based
[2] = molecular target: Programmed cell death protein 1/Programmed cell death 1 ligand 1 (Homo sapiens) (UniProt Q15116+Q9NZQ7); settings: dose 300.0 nM, time 15.0 min
[3] = molecular target: Programmed cell death 1 ligand 1 (Homo sapiens) (UniProt Q9NZQ7); assay: Induction of human PD-L1 degradation expressed in MC38 cells at 0.1 to 10 uM cocultured for 72 hrs by Western blotting analysis; type: cell-based; settings: dose 0.1-10 µM
Sequence of Programmed cell death 1 ligand 1 (Homo sapiens) (Q9NZQ7 whole entry): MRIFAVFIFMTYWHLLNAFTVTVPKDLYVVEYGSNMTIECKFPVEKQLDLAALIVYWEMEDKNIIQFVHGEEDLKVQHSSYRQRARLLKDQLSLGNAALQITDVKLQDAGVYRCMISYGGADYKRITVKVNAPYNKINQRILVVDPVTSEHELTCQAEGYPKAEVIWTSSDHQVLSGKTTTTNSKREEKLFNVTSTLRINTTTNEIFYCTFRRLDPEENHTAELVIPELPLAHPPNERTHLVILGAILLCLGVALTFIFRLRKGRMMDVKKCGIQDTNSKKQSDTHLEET

[4] = Partition coefficient, logD of compound in 1-octanol and phosphate buffer at pH 7.4 incubated for 1 hr under shaking condition by HPLC analysis; type: physicochemical; settings: for logD at 1 h: 1-octanol/phosphate buffer, pH 7.4
[5] = test system: RKO; assay: Cytotoxicity against human RKO cells over expressing human PD-L1 at above 10 uM; type: toxicity, cell-based
[6] = Toxicity in BALB/c mouse implanted with mouse CT26 cells assessed as weight loss at 25 mg/kg, ip qd administered for 10 days measured every 2 days for 12 days relative to control; type: organism-based; settings: in vivo, 288 h, time 12 day
[7] = test system: MC-38; assay: Cytotoxicity against mouse MC38 cells assessed as cell death at 10 uM for 48 hrs by MTT assay; type: toxicity, cell-based; settings: mc-38, 48 h
[8] = Tmax in CD-1 mouse at 5 mg/kg, ip measured upto 24 hrs by UPLC analysis; type: ADME, organism-based; settings: in vivo
[9] = test system: B16-F10; assay: Antitumor activity against mouse B16-F10 cells implanted in C57BL/6 mouse assessed as tumor growth inhibition at 100 mg/kg, po qd for 6 days and measured once a day for 7 days relative to control; type: functional; settings: B16-F10, 168 h, time 7 day, read-out: TGI
[10] = Half life in CD-1 mouse at 5 mg/kg, ip measured upto 24 hrs by UPLC analysis; type: ADME, organism-based; settings: in vivo
[11] = test system: B16-F10; assay: Antitumor activity against mouse B16-F10 cells implanted in C57BL/6 mouse assessed as tumor growth inhibition at 5 mg/kg, it qd for 6 days and measured once a day for 7 days relative to control; type: functional; settings: B16-F10, 168 h, time 7 day, read-out: TGI
[12] = Tmax in CD-1 mouse at 5 mg/kg, iv measured upto 24 hrs by UPLC analysis; type: ADME, organism-based; settings: in vivo
[13] = Toxicity in C57BL/6 mouse implanted with mouse B16-F10 cells assessed as weight loss at 5 mg/kg, it qd administered for 6 days measured after 7 days relative to control; type: organism-based; settings: in vivo, other, 168 h, time 7 day
[14] = test system: CT26; assay: Antitumor activity against mouse CT26 cells xenografted Balb/c mouse assessed as increase CD3+ CD8+ T cell count at 25 mg/kg, ip qd administered for 10 days measured every 2 days for 12 days (reference value: 5.77 +/- 0.32%); type: functional; settings: time 12 day
[15] = Toxicity in C57BL/6 mouse implanted with mouse B16-F10 cells assessed as weight loss at 25 mg/kg, ip qd administered for 6 days measured after 7 days relative to control; type: organism-based; settings: in vivo, 168 h, time 7 day
[16] = molecular target: T1, Programmed cell death protein 1/Programmed cell death 1 ligand 1 (Homo sapiens, UniProt Q9NZQ7); assay: Inhibition of human PD-1/PD-L1 interaction overexpressed in human HEK293T cells by flow cytometry analysis; type: cell-based
T1 sequence (Q15116 whole entry): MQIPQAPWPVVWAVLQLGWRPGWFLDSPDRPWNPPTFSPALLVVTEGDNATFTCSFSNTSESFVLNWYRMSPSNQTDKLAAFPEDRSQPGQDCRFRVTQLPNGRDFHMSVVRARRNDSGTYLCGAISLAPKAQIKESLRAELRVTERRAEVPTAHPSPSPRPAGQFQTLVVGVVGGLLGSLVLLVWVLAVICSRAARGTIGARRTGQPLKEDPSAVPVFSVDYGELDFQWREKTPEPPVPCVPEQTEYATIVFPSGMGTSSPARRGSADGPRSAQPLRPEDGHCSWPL
T1 sequence (Q9NZQ7 whole entry): as the sequence (Q9NZQ7 whole entry) above

[17] = AUClast in CD-1 mouse at 5 mg/kg, ip measured upto 24 hrs by UPLC analysis; type: ADME, organism-based; parameters: dose 5 mg/kg, time < 24 hrs, route ip; settings: in vivo
[18] = test system: CT26; assay: Antitumor activity against mouse CT26 cells implanted in Balb/c mouse assessed as tumor growth inhibition at 25 mg/kg, ip qd administered for 10 days measured every 2 days for 12 days relative to control; type: functional; settings: CT26, 288 h, time 12 day, read-out: TGI
[19] = AUClast in CD-1 mouse at 5 mg/kg, iv measured upto 24 hrs by UPLC analysis; type: ADME, organism-based; parameters: dose 5 mg/kg, time < 24 hrs, route iv; settings: in vivo
[20] = Toxicity in C57BL/6 mouse implanted with mouse B16-F10 cells assessed as weight loss at 100 mg/kg, po qd administered for 6 days measured after 7 days relative to control; type: organism-based; settings: in vivo, 168 h, time 7 day
[21] = Cmax in CD-1 mouse at 5 mg/kg, ip measured upto 24 hrs by UPLC analysis; type: ADME, organism-based; parameters: dose 5 mg/kg, time < 24 hrs, route ip; settings: in vivo
[22] = test system: Jurkat; assay: Cytotoxicity against human Jurkat T cells assessed as cell growth inhibition upto 30 uM incubated for 48 hrs by MTT assay; type: toxicity, cell-based
[23] = Observed AUC infinity in CD-1 mouse at 5 mg/kg, iv measured upto 24 hrs by UPLC analysis; type: ADME, organism-based; parameters: dose 5 mg/kg, time < 24 hrs, route iv; settings: mouse, in vivo, 24 h
[24] = test system: B16-F10; assay: Antitumor activity against mouse B16-F10 cells implanted in C57BL/6 mouse assessed as tumor growth inhibition at 25 mg/kg, ip qd for 6 days and measured once a day for 7 days relative to control; type: functional; settings: B16-F10, 168 h, time 7 day, read-out: TGI
[25] = test system: CT26; assay: Antitumor activity against mouse CT26 cells xenografted Balb/c mouse assessed as granzyme B+ CD8+ T cell count at 25 mg/kg, ip qd administered for 10 days measured every 2 days for 12 days (reference value: 4.31 +/- 2.35%); type: functional; settings: time 12 day
[26] = Cmax in CD-1 mouse at 5 mg/kg, iv measured upto 24 hrs by UPLC analysis; type: ADME, organism-based; parameters: dose 5 mg/kg, time < 24 hrs, route iv; settings: in vivo
[27] = Observed MRT infinity in CD-1 mouse at 5 mg/kg, ip measured upto 24 hrs by UPLC analysis; type: ADME, organism-based; settings: in vivo
[28] = Upregulation of IFN-gamma secretion in human CD4+ve Th cells cocultured with DC cells incubated for 120 hrs by ELISA; type: functional
[29] = Half life in CD-1 mouse at 5 mg/kg, iv measured upto 24 hrs by UPLC analysis; type: ADME, organism-based; settings: in vivo
[30] = test system: CT26; assay: Antitumor activity against mouse CT26 cells implanted Balb/c mouse assessed as increase CD4+ cell count at 25 mg/kg, ip qd administered for 10 days measured every 2 days for 12 days (reference value: 13.74 +/- 0.51%); type: functional; settings: time 12 day
[31] = Observed AUC infinity in CD-1 mouse at 5 mg/kg, ip measured upto 24 hrs by UPLC analysis; type: ADME, organism-based; parameters: dose 5 mg/kg, time < 24 hrs, route ip; settings: in vivo
[32] = Observed MRT infinity in CD-1 mouse at 5 mg/kg, iv measured upto 24 hrs by UPLC analysis; type: ADME, organism-based; settings: in vivo
[33] = molecular target: T1, Programmed cell death protein 1/Programmed cell death 1 ligand 1; assay: Inhibition of PD-1/PD-L1 (unknown origin) interaction incubated for 15 mins by HTRF assay; type: protein-complex assay
[34] = Cytotoxicity against human Jurkat T cells assessed as cell viability at 10 uM incubated for 48 hrs by MTT assay; type: toxicity, cell-based; settings: read-out: Activity
[35] = molecular target: Programmed cell death 1 ligand 1 (Homo sapiens) (UniProt Q9NZQ7); assay: Induction of human PD-L1 degradation expressed in MC38 cells at 10 uM cocultured for 72 hrs by Western blotting analysis; type: cell-based
[36] = test system: RKO; assay: Cytotoxicity against human RKO cells over expressing human PD-L1 at 50 uM; type: toxicity, cell-based
[37] = molecular target: Programmed cell death 1 ligand 1 (Homo sapiens) (UniProt Q9NZQ7); assay: Inhibition of human PD-L1 overexpressed in RKO cells assessed as reduction in membrane activity cocultured for 48 hrs by flow cytometry analysis; type: cell-based

Cc1c(COc2cc(CNCCO)ccc2Cl)cccc1-c1ccccc1
IC50 [1]: 7.8 µM
inhibition [2]: 51.4%

COc1ccc(CNCCO)cc1OCc1cccc(-c2ccccc2)c1C
IC50 [1]: 17.9 µM
inhibition [2]: 26.9%

COc1cc(OCc2cccc(-c3ccccc3)c2C)cc(OC)c1CNCCO[C@@H]1O[C@H](CO)[C@@H](O)[C@H](O)[C@H]1O
Activity [3]: inactive

Cc1cc(OCc2cccc(-c3ccccc3)c2C)cc(C)c1CNCCO
IC50 [1]: 4.1 µM
inhibition [2]: 62.8%

COc1nc(OCc2cccc(-c3ccccc3)c2C)ccc1CNCCNC(C)=O
logD at 1 h [4]: 3.33
IC50 [1]: 2.6 µM
Activity [5]: Toxic
Activity [6]: Toxic
Activity [7]: Toxic

COc1cc(OCc2cccc(-c3ccccc3)c2C)cc(OC)c1CNCCO[C@H]1O[C@H](CO)[C@@H](O)[C@H](O)[C@@H]1O
Tmax [8]: 0.58 h
inhibition in vivo at 100 mg/kg [9]: 41.1%
half-life [10]: 5.83 h
logD at 1 h [4]: 1.78
inhibition in vivo at 5 mg/kg [11]: 41.1%
Tmax [12]: 0.58 h
Activity [13]: Non-Toxic
Activity [14]: 8.67%
Activity [15]: Non-Toxic
IC50 [16]: 0.0608 µM
AUC(0-t) at 24 h [17]: 2920 ng·h/mL
inhibition in vivo at 25 mg/kg [18]: 67.2%
AUC(0-t) at 24 h [19]: 1090 ng·h/mL
Activity [20]: Non-Toxic
Cmax [21]: 1630 ng/mL
Activity [6]: Non-Toxic
Activity [22]: Non-Toxic
AUC [23]: 1110 ng·h/mL
inhibition in vivo at 25 mg/kg [24]: 41.1%
Activity [25]: 7.19%
Cmax [26]: 928 ng/mL
MRT inf [27]: 1.9 h
fold change (FC) [28]: 6.72
half-life [29]: 3.78 h
Activity [30]: 18.4%
AUC(0-inf) [31]: 2990 ng·h/mL
MRT inf [32]: 1.5 h

Cc1c(COc2ccc(Cl)c(CNCCO)c2)cccc1-c1ccccc1
IC50 [1]: 12.4 µM
inhibition [2]: 36.7%

CN(C)CCC=C1c2ccccc2CCc2ccccc21 [AMITRIPTYLINE]
logD at 1 h [4]: 3

COc1cc(OCc2cccc(-c3ccccc3)c2C)cc(OC)c1CN[C@H](C)CO
logD at 1 h [4]: 3.25
IC50 [1]: 2.8 µM
Activity [5]: Toxic
Activity [7]: Toxic

COc1nc(OCc2cccc(-c3ccccc3)c2C)ccc1CNCc1cn([C@H]2O[C@@H](C)[C@@H](O)[C@@H](O)[C@@H]2O)nn1
IC50 [1]: 24.5 µM
IC50 [33]: 0.178 µM

COc1cc(OCc2cccc(-c3ccccc3)c2C)cc(OC)c1CNCc1cn([C@H]2O[C@H](CO)[C@@H](O)[C@H](O)[C@@H]2O)nn1
IC50 [1]: 50.5 µM
IC50 [33]: 0.114 µM

COc1nc(OCc2cccc(-c3ccccc3)c2C)ccc1CNCc1cn([C@@H]2O[C@H](CO)[C@@H](O)[C@H](OC)[C@H]2O)nn1
IC50 [1]: 34.3 µM
IC50 [33]: 0.305 µM

CC(C)(C)NCC(O)COc1cccc2c1CC(O)C(O)C2 (centres undefined) [NADOLOL]
logD ([4]; octanol/water, pH 7.4, 1 h): -1.2

COc1nc(OCc2cccc(-c3ccccc3)c2C)ccc1CNCc1cn([C@@H]2O[C@H](CO)[C@@H](O)[C@H](O)[C@H]2NC(C)=O)nn1
IC50 [1]: > 100 µM
IC50 [33]: 0.0237 µM

COc1nc(OCc2cccc(-c3ccccc3)c2C)ccc1CNCc1cn([C@@H]2O[C@@H]3CO[C@@H](c4ccccc4)O[C@H]3[C@H](O)[C@H]2O)nn1
IC50 [1]: 8.8 µM
IC50 [33]: 0.461 µM

COc1ccc(CNCc2cn([C@H]3O[C@H](CO)[C@@H](O)[C@H](O)[C@@H]3O)nn2)cc1OCc1cccc(-c2ccccc2)c1C
IC50 [1]: 73.9 µM
IC50 [33]: 1.15 µM

COc1cc(OCc2cccc(-c3ccccc3)c2C)cc(OC)c1CNCc1cn([C@@H]2OC[C@H](O)[C@@H](O)[C@H]2O)nn1
IC50 [1]: 19.8 µM
IC50 [33]: 0.321 µM

CN(C)CCCN1c2ccccc2Sc2ccc(Cl)cc21 [CHLORPROMAZINE]
logD at 1 h [4]: 3.18

COc1cc(OCc2cccc(-c3ccccc3)c2C)cc(OC)c1CNCc1cn([C@@H]2OC[C@H](O)[C@H](O)[C@H]2O)nn1
IC50 [1]: 43.4 µM
IC50 [33]: 0.507 µM

COc1nc(OCc2cccc(-c3ccccc3)c2C)ccc1CNCCO
logD at 1 h [4]: 3.23
IC50 [1]: 2.8 µM
inhibition [2]: 94.5%
viability at 48 h, 10 µM [34]: 0%

COc1cc(OCc2cccc(-c3ccccc3)c2C)cc(OC)c1CNCCO
logD at 1 h [4]: 2.85
IC50 [1]: 5.7 µM
viability at 48 h, 10 µM [34]: 0%

COc1nc(OCc2cccc(-c3ccccc3)c2C)ccc1CNCCO[C@H]1O[C@H](CO)[C@@H](O)[C@H](O)[C@@H]1O
Activity [35]: Active
Activity [36]: Non-Toxic
inhibition [37]: Active

COc1nc(OCc2cccc(-c3ccccc3)c2C)ccc1CNCc1cn([C@@H]2O[C@H](CO)[C@H](O)[C@H](O)[C@H]2O)nn1
IC50 [1]: > 100 µM
IC50 [33]: 0.174 µM

COc1nc(OCc2cccc(-c3ccccc3)c2C)ccc1CNCc1cn([C@@H]2OC[C@@H](O)[C@@H](O)[C@H]2O)nn1
IC50 [1]: 16.9 µM
IC50 [33]: 0.0989 µM

Cc1c(COc2ccc(CNCCO)cc2F)cccc1-c1ccccc1
IC50 [1]: 5.4 µM
inhibition [2]: 57.1%

COc1cc(OCc2cccc(-c3ccccc3)c2C)cc(OC)c1CNCc1cn([C@@H]2O[C@H](CO)[C@@H](O)[C@H](O)[C@H]2O)nn1
IC50 [1]: > 100 µM
IC50 [33]: 0.147 µM

COc1cc(OCc2cccc(-c3ccccc3)c2C)cc(OC)c1CNCc1cn([C@@H]2O[C@H](CO)[C@@H](O)[C@H](O)[C@H]2NC(C)=O)nn1
IC50 [1]: > 100 µM
IC50 [33]: 0.03 µM
